The text below walks through data of ChEMBL document CHEMBL1129016, “Synthesis and in vitro evaluation of 3-substituted-1-azaanthraquinones” (Bioorg Med Chem Lett, 1996).

Each structure is given as a SMILES string. Values after ≈ are worked out from the molar mass of the structure shown. Bounds are passed on as bounds.

The subject of assay [1] is MCF7. The assay is described as follows: In vitro cytotoxic activity against subline resistant to doxorubicin (MCF-7/R) by using SRB assay after 72 hr of drug exposure. The class given is functional, cell-based. The settings on record: Homo sapiens, MCF7, 72 h.
For assay [2], the system named is MCF7. The assay is described as follows: In vitro cytotoxic activity against human breast cancer cells (MCF-7) by using SRB assay after 72 hr of drug exposure. The class given is functional, cell-based. The settings on record: MCF7, 72 h. In general terms: In SRB staining, fixed cells bind dye roughly in proportion to their protein.
In assay [3] the test system is SNU1. The assay is described as follows: In vitro cytotoxic activity against SNU-1(stomach cancer cell) by using SRB assay after 72 hr of drug exposure. The class given is functional, cell-based. The settings on record: Homo sapiens, SNU1, 72 h.
The subject of assay [4] is SNU-354. The assay is described as follows: In vitro cytotoxic activity against SNU-354(liver cancer cell) by using SRB assay after 72 hr of drug exposure. The settings on record: Homo sapiens, SNU-354, 72 h. The class given is functional, cell-based.
Assay [5] is described as follows: Resistance index expressed as the ratio of IC50 of resistant cell line (MCF-7/R) to IC50 of sensitive cell line (MCF-7). It counts as functional.

Regarding `CC(C)NC(=O)OCc1cnc2c(c1)C(=O)c1ccccc1C2=O`, the IC50 in assay [1] was over 100 µg/mL; in assay [2] it was over 100 µg/mL; in assay [3] it was over 20 µg/mL; in assay [4], over 20 µg/mL.

Take `O=C1c2ccccc2C(=O)c2ncc(CO)cc21`: the IC50 amounted to 17.7 µg/mL (≈ 74.1 µM) in assay [1], 6.66 µg/mL (≈ 27.8 µM) in assay [2], 8.1 µg/mL (≈ 33.9 µM) in assay [3] and 4.5 µg/mL (≈ 18.8 µM) in assay [4]. Besides, the Resistance index in assay [5] came out at 2.7.

Regarding `O=C1c2ccccc2C(=O)c2ncc(CBr)cc21`, the IC50 in assay [1] turned out to be 3.08 µg/mL (≈ 10.2 µM); in assay [2], 2.49 µg/mL (≈ 8.24 µM); in assay [3], 0.56 µg/mL (≈ 1.85 µM); in assay [4] it was 0.89 µg/mL (≈ 2.95 µM). The Resistance index in assay [5] turned out to be 1.2.

On to `Cc1cnc2c(c1)C(=O)c1ccccc1C2=O`, for which the IC50 in assay [1] is 69.1 µg/mL (≈ 309 µM); in assay [2], 18.3 µg/mL (≈ 82.1 µM); in assay [3], 13.9 µg/mL (≈ 62.3 µM); in assay [4], over 20 µg/mL. The Resistance index in assay [5] is reported as 3.8.

On to `CC(=O)OCc1cnc2c(c1)C(=O)c1ccccc1C2=O`, for which the IC50 in assay [1] is 49.9 µg/mL (≈ 177 µM); in assay [2], 6.7 µg/mL (≈ 23.8 µM); in assay [3], 8.4 µg/mL (≈ 29.9 µM); in assay [4] it was 11.8 µg/mL (≈ 42 µM). In addition, in assay [5], the Resistance index was 7.4.

As to `O=C(Nc1ccccc1)OCc1cnc2c(c1)C(=O)c1ccccc1C2=O`, the IC50 in assay [1] was found to be 57.3 µg/mL (≈ 160 µM); in assay [2] it was 4.58 µg/mL (≈ 12.8 µM); in assay [3], 14.9 µg/mL (≈ 41.6 µM); in assay [4] it was 15.2 µg/mL (≈ 42.4 µM). In addition, the Resistance index in assay [5] was 12.5.

`COc1cccc2c1C(=O)c1c(O)c3c(c(O)c1C2=O)C[C@@](O)(C(=O)CO)C[C@@H]3O[C@H]1C[C@H](N)[C@H](O)[C@H](C)O1` [DOXORUBICIN]: the results for the IC50 in assay [3] and in assay [4] were 0.27 µg/mL (≈ 0.497 µM) and 0.54 µg/mL (≈ 0.994 µM), respectively.

In general, IC50 refers to the midpoint of a concentration-inhibition curve. Higher therefore signals lower potency.
